Laboratory results from US20250354192A1, “METHODS FOR QUANTIFYING LIVE BACTERIA” (priority 2022, published 2025).

System: Pseudomonas
Assay: Two-step labeling with EDA versus NADA-Green, PIPER counts relative to SYBR labeling
Format: cell-based
Details: 1 mM EDA 30 minutes plus click reaction solution, compared with 1 mM NADA-Green 60-90 minutes
Description: Universal labeling of all bacteria presents some challenges. D-amino acid analogs must first penetrate the outer membrane of gram-negative bacteria to be incorporated into peptidoglycan. The smaller size of the “clickable” D-amino acids compared to the FDAAs helps achieve higher labeling efficiency for some gram-negative bacteria. Accordingly, and for example, FIGS. 11A-B depict two-step labeling using the “clickable” D-amino acid, EDA, which improves detection of Pseudomonas. Log phase Pseudomonas growing at 37° C. in BHI (with [Supplemented BHI, red bars] or without [blue bars] supplementation with 50 mM glucose and 10 mM sodium pyruvate) was incubated for 60-90 minutes with 1 mM NADA-Green (Bio-Techne, Minneapolis, MN); or for 30 minutes in the presence or absence of 1 mM clickable D-amino acid, EDA (D-propargylglycine, AK Scientific, Union City, CA). For the unlabeled cells or cells labeled with NADA-Green, the cells were pelleted after incubation and resuspended in 1×PBS. For the cells grown in the presence or absence of EDA, the cells were pelleted after incubation by centrifugation (10 min 10,000 g), and supernatant was discarded. Bacteria were washed with 1 mL of 1× PBS, pelleted by centrifugation again (10 min 10,000 g), and supernatant was discarded. […]

In the case of `C#CC[C@@H](N)C(=O)O` [EDA, D-propargylglycine], the “detection efficiency, cell counts relative to counts obtained by SYBR labeling” value is reported as “Highest detection efficiency”.
